# Source: patent US20230080054A1 (ILDONG PHARMACEUTICAL CO., LTD., priority 2021, published 2023)
# Legend:
# human ANO6 [1] = target: T1, human ANO6 (Homo sapiens, UniProt Q4KMQ2); assay: LACT C2 assay (phosphatidylserine scramblase function assay); format: cell-based; details: FRT cells expressing human ANO6, 10 μM ionomycin; for inhibition at 0.1 µM: test compound 100 nM, read-out: Inhibition Level 100 nM; for inhibition at 1 µM: test compound 1 μM, read-out: Inhibition Level 1 μM
# T1 construct: expressed in transfected cells
# T1 sequence (Q4KMQ2 1-931 isoform Q4KMQ2-2): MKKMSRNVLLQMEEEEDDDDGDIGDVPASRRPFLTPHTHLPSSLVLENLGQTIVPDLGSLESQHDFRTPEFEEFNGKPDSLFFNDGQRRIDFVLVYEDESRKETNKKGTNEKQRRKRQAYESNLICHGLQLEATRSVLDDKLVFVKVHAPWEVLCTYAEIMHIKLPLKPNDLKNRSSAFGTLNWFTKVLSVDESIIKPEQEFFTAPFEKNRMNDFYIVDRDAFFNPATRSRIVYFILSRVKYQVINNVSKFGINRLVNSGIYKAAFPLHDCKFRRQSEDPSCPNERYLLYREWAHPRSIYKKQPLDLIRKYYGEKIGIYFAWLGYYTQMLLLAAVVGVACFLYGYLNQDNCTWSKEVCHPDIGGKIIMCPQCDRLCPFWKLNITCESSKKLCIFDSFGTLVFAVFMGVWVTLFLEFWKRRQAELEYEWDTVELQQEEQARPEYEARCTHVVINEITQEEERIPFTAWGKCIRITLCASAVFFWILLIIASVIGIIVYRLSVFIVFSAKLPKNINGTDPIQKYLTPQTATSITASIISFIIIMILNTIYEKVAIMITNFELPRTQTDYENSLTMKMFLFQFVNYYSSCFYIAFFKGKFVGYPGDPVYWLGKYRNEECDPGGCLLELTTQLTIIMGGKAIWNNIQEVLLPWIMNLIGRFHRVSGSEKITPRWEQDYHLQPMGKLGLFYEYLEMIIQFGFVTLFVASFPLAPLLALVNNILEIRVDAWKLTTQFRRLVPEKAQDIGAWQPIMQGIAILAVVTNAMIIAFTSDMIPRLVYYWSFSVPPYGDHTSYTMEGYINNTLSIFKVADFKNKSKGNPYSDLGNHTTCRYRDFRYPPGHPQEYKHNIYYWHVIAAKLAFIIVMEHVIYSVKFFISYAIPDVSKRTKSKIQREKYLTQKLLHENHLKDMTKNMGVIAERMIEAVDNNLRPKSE
# How it was run: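 Inhibition was normalised between ionomycin-only (0%) and untreated (100%) wells, with triplicates averaged. Readout was background-corrected Lact-C2-GFP (500 nM) fluorescence from imaged cells. The cells were FRT cells stably expressing human ANO6, given compound at 1% DMSO for 10 min before a 10 min 10 μM ionomycin challenge.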
# [2] = system: platelet-rich plasma (PRP); assay: Recalcification time of rat platelet-rich plasma; details: 30 μM, vs 2% DMSO control
# Method: Example 5: Recalcification Time
# 1. Materials and Instruments
# Isoflurane (Hana Pharm, cat. #9008), Isotonic Sodium Chloride Injection (Daihan Pharm, cat. #331), Citrate-dextrose solution (Sigma-Aldrich, cat. #C3821), Calcium chloride solution (Sigma-Aldrich, cat. #21115), 22G Syringe 10 mL (Koreavaccine), Dimethyl sulfoxide (Sigma-Aldrich, cat. #D5879), Apixaban (AK scientific, cat. #X1060), 96 Well Cell Culture Plates (SPL Life Sciences, cat. #30096), Synergy H4 Hybrid Microplate Reader (BioTek), Combi R515 Multi-purpose Centrifuge (Hanil Scientific), BS-06 Shaking & Heating Baths (JEIO TECH), and PST-60HL-4 Plate Shaker-Thermostat (Bio-San)
# Seven-week-old male SD Rat (ORIENT BIO.) were maintained under controlled conditions of temperature (22±2° C.) and 12-h light/12-h dark cycle. Rats were housed in the pathogen-free facility of the Laboratory Animal Research Center in Ildong Pharmaceutical Co. Ltd. All procedures on animals were conducted in accordance with the relevant national regulatory guidelines and individual experiments approved by the Ildong Pharmaceutical Co. Ltd., Institutional Animal Care and Use Committee (IACUC) (approval No.: A2106-3, 2108-4).
# The ability of test compounds to interfere with plasma coagulation, in the presence of platelets, was analyzing by measuring the recalcification time of rat plasma. The blood of animals was collected into 15 mL tubes containing Citrate-dextrose solution (9:1 v/v) before performing the assays. For recalcification time, platelet-rich plasma (PRP) samples were obtained by centrifugation at 360×g for 10 minutes. And the PRP were preincubated for 5 minutes (37° C.). In a 96 well microplate, test compounds (2 μL) were treated in 98 μL of platelet rich plasma. After mixing with a pipette, it was incubated at 37° C. for 15 minutes. The reaction was started by addition of 200 μL of pre-warmed CaCl2) (16 mM). Immediately, put the microplate in a microplate reader and the signals were measured by the following steps.
# (1) 405 nm wavelength absorbance signals were recorded in every 10 seconds at 37° C.
# (2) Basal absorbance signals were recorded for 0 second.
# The signal variance of each of the test compounds was obtained by the following step.
# (1) Background signals (t=O) were subtracted from recording values, and the resulting values were converted to change values. The values at 0 second were set to be zero.
# The retardation time of test compound were calculated by the following formula:
# Retardation time (sec)=[log EC50 (test sample)−log EC50 (DMSO control)]
# As described above, a DMSO control group is a group to which 2% DMSO was treated.
# The assay result is shown in Table 5, where compounds (30 μM) having less than 20 seconds of retardation time are marked by ‘C’; the compounds (30 μM) having retardation time of 20 seconds or more to less than 50 seconds are marked by ‘B’; and the compounds (30 μM) having retardation time of 50 seconds or more are marked by ‘A’.
# human ANO6 [3] = target: T1, human ANO6; assay: YFP quenching assay (ANO6 ion channel activity); format: cell-based; details: 10 μM ionomycin; for inhibition at 1 µM: test compound 1 μM, read-out: Inhibition Level 1 μM; for inhibition at 30 µM: test compound 30 μM, read-out: Inhibition Level 30 μM
# How it was run: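 FRT cells stably expressing human ANO6 and YFP-H148Q/I152L/F46L, preincubated 10 min at 40° C with compounds (1% DMSO) in PBS. Quench read every 0.4 s after injecting 140 mM SCN- with 10 μM ionomycin; % inhibition from the 3.6–7.6 s fluorescence difference, normalised to no-ionomycin (100%) and ionomycin-only (0%) wells, duplicate or triplicate.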
inhibition at 1 µM (human ANO6 [1]) [%],inhibition at 1 µM (human ANO6 [3]) [%],inhibition at 30 µM (human ANO6 [3]) [%],Structure (SMILES),inhibition at 0.1 µM (human ANO6 [1]) [%],"Inhibition Level (retardation time, recalcification time) [2]"
–,–,–,"O=C(Nc1cccc(F)c1)c1cccc(Nc2ccc(-c3cncnc3)cc2)c1 [Compound 164, N-(3-fluorophenyl)-3-((4-(pyrimidin-5-yl)phenyl)amino)benzamide]",30 to 60,C (compounds (30 μM) having less than 20 seconds of retardation time)
–,–,–,"O=C(N[C@@H]1C[C@H]1c1ccccc1)c1cccc(Nc2ccc(-c3ncccn3)cc2)c1 [Compound 171, N-((1R,2S)-2-phenylcyclopropyl)-3-((4-(pyrimidin-2-yl)phenyl)amino)benzamide]",< 30,C (compounds (30 μM) having less than 20 seconds of retardation time)
–,–,–,"O=C(Nc1cccc(F)c1)c1cccc(Nc2ncc(-c3ccoc3)cn2)c1 [Compound 176, N-(3-fluorophenyl)-3-((5-(furan-3-yl)pyrimidin-2-yl)amino)benzamide]",–,C (compounds (30 μM) having less than 20 seconds of retardation time)
–,–,–,"O=C(N[C@@H]1C[C@H]1c1ccccc1)c1cccc(Nc2ccc(-c3cnccn3)cc2)c1 [Compound 173, N-((1R,2S)-2-phenylcyclopropyl)-3-((4-(pyrazin-2-yl)phenyl)amino)benzamide]",< 30,B (the compounds (30 μM) having retardation time of 20 seconds or more to less than 50 seconds)
–,–,–,"O=C(Nc1cccc(F)c1)c1cccc(Nc2ccc(-c3cnccn3)cc2)c1 [Compound 172, N-(3-fluorophenyl)-3-((4-(pyrazin-2-yl)phenyl)amino)benzamide]",≥ 60,C (compounds (30 μM) having less than 20 seconds of retardation time)
–,–,–,"O=C(N[C@@H]1C[C@H]1c1ccccc1)c1cccc(Nc2ccc(-c3cncnc3)cc2)c1 [Compound 165, N-((1R,2S)-2-phenylcyclopropyl)-3-((4-(pyrimidin-5-yl)phenyl)amino)benzamide]",< 30,C (compounds (30 μM) having less than 20 seconds of retardation time)
–,–,–,"O=C(Nc1cccc(F)c1)c1cccc(Nc2ccc(-c3ncccn3)cc2)c1 [Compound 170, N-(3-fluorophenyl)-3-((4-(pyrimidin-2-yl)phenyl)amino)benzamide]",30 to 60,B (the compounds (30 μM) having retardation time of 20 seconds or more to less than 50 seconds)
–,–,–,"O=C(Nc1cccc(F)c1)c1cccc(Nc2ccc(-c3ccncn3)cc2)c1 [Compound 175, N-(3-fluorophenyl)-3-((4-(pyrimidin-4-yl)phenyl)amino)benzamide]",≥ 60,B (the compounds (30 μM) having retardation time of 20 seconds or more to less than 50 seconds)
< 30,≥ 60,≥ 60,O=C(NC1CCCCC1)c1cccc(Nc2ccc(-c3ccc(F)cc3)nn2)c1 [Compound A2],< 30,–
≥ 60,≥ 60,≥ 60,O=C(NCCC1=CCCCC1)c1cccc(Nc2ccc(-c3ccccc3)nn2)c1 [Compound A40],< 30,–
≥ 60,≥ 60,≥ 60,"O=C(Nc1cccc(F)c1)c1cccc(Nc2ccc(-c3ccccc3)nn2)c1 [Compound 29, N-(3-fluorophenyl)-3-[(6-phenylpyridazin-3-yl)amino]benzamide]",30 to 60,–
< 30,≥ 60,≥ 60,"O=C(NC1CC1)c1cccc(Nc2ccc(-c3ccccc3)nn2)c1 [Compound 38, N-cyclopropyl-3-[(6-phenylpyridazin-3-yl)amino]benzamide]",–,–
30 to 60,30 to 60,–,"O=C(NCc1ccco1)c1cccc(Nc2ccc(-c3ccccc3)nn2)c1 [Compound 46, N-[(furan-2-yl)methyl]-3-[(6-phenylpyridazin-3-yl)amino]benzamide]",–,–
≥ 60,30 to 60,≥ 60,"Cc1ccc(CNC(=O)c2cccc(Nc3ncc(-c4ccccc4)cn3)c2)o1 [Compound 2, N-[(5-methylfuran-2-yl)methyl]-3-[(5-phenylpyrimidin-2-yl)amino]benzamide]",< 30,–
30 to 60,30 to 60,≥ 60,O=C(NC1CCCCC1)c1cccc(Nc2ccc(-c3ccccc3)nn2)c1 [Compound A62],< 30,–

Structure (SMILES),inhibition at 1 µM (human ANO6 [1]) [%],inhibition at 1 µM (human ANO6 [3]) [%],inhibition at 30 µM (human ANO6 [3]) [%],inhibition at 0.1 µM (human ANO6 [1]) [%],"Inhibition Level (retardation time, recalcification time) [2]"
"O=C(Nc1cccc(F)c1)c1cccc(Nc2ccc(-c3ccccc3)cn2)c1 [Compound 128, N-(3-fluorophenyl)-3-((5-phenylpyridin-2-yl)amino)benzamide]",≥ 60,–,–,≥ 60,A (the compounds (30 μM) having retardation time of 50 seconds or more)
"O=C(N[C@@H]1C[C@H]1c1ccccc1)c1cccc(Nc2ccc(-c3cccnc3)cc2)c1 [Compound 161, N-((1R,2S)-2-phenylcyclopropyl)-3-((4-(pyridin-3-yl)phenyl)amino)benzamide]",≥ 60,–,–,≥ 60,A (the compounds (30 μM) having retardation time of 50 seconds or more)
"O=C(NCCC12CC3CC(CC(C3)C1)C2)c1cccc(Nc2ccc(-c3cccc(F)c3)cn2)c1 [Compound 142, N-(2-(adamantan-1-yl)ethyl)-3-((5-(3-fluorophenyl)pyridin-2-yl)amino)benzamide]",≥ 60,–,–,≥ 60,A (the compounds (30 μM) having retardation time of 50 seconds or more)
